Drawing on PubChem BioAssay (NCI), this text covers TGI and GI50 for 22 compounds.

Molecules are shown by their SMILES. “And” between values parts separate entries of the source, which are not always exact repeats. Equal values may be shown once.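 Cultured in 96-well plates, cells were exposed to test compound for 48 hours across five concentrations. GI50: concentration for 50% inhibition of growth. TGI is the concentration that stops growth completely.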

One experiment concerns NCI-H23 lung. Briefly: NCI-60 cell line screen, 48 h.
As to `O=C(Nc1nc2ccc([N+](=O)[O-])cc2s1)C(=O)C(C1OC(=O)c2ccccc21)[N+](=O)[O-]` (stereo unspecified), the TGI is greater than 100 µM.
In the case of `COc1cc2cc(OC)c3cc4c(cc3c2c(OC)c1OC)OCO4`, the TGI is greater than 81.2 µM.
In the case of `COc1cc2c(cc1OCCCCN1CCN(CC(=O)Nc3ccc(Cl)cc3C(=O)c3ccccc3Cl)CC1)N=CC1CCCN1C2=O` (stereo unspecified), the GI50 is 0.206 µM and the TGI amounted to 0.446 µM.
Consider `C[C@@H](Oc1cc(-n2cnc3ccc(CN4CCN(C)CC4)cc32)sc1C(N)=O)c1ccccc1C(F)(F)F`, for which the GI50 was < 0.0114 µM and 0.0145 µM; the TGI was 13.2 µM and > 10 µM.

A further experiment concerns OVCAR-5 ovarian. Briefly: NCI-60 cell line screen, 48 h.
Consider `CCOC1Oc2ccccc2C(=O)/C1=C/Nc1ccc(C(C)=O)cc1` (stereo unspecified), for which the GI50 is 19.5 µM and the TGI was found to be 48.3 µM.
`COC1/C=C/OC2(C)Oc3c(C)c(O)c4c(O)c(c(/C=N/Nc5ccc([N+](=O)[O-])cc5[N+](=O)[O-])c(O)c4c3C2=O)NC(=O)C(C)=C/C=C/C(C)C(O)C(C)C(O)C(C)C(OC(C)=O)C1C` (stereo unspecified): the GI50 was 3.59 µM and the TGI is 11.6 µM.
In turn, `Cc1cc(NS(=O)(=O)c2ccc(Nc3c4ccccc4nc4c(C(=O)N5CCN(CCOS(C)(=O)=O)CC5)cccc34)cc2)no1` had a TGI greater than 100 µM.
Take `C=CCO[C@H]1CO[C@H]2[C@@H]1OC[C@@H]2Oc1ccc(Nc2ccnc(Nc3ccc(O[C@H]4CO[C@H]5[C@@H]4OC[C@@H]5OCC=C)c(Cl)c3)n2)cc1Cl`: the GI50 was 1.83 µM and the TGI was found to be 3.29 µM.
`O=C(O)CCC(NC(=O)c1ccc(Nc2nc3ccccc3nc2-c2cccs2)cc1)C(=O)O` (stereo unspecified) yielded a TGI greater than 100 µM.
As for `COc1ccc2c(c1)sc1nc(-c3ccccc3)c(-c3cccc4ccccc34)n12`, the GI50 is 2.07 µM and the TGI was greater than 100 µM.
Take `C[N+](C)(C)CC(=O)N/N=C(/CC(=O)CC(C1=C(O)c2ccccc2OC1)c1ccccc1)C(=O)Nc1cccc(Cl)c1` (stereo unspecified): the TGI is greater than 100 µM.
The same measure, in the same setting: the figure for `COc1cc2ccnc([C@@H](OC(=O)c3ccccc3)c3ccc(OC)c(OC)c3OC)c2cc1OC` is greater than 100 µM.
For `Cc1ccc(NC(=O)Nc2ccc(-c3cccnc3)cc2N2CCC(CO)CC2)cc1`, the GI50 is 3.64 µM and the TGI is greater than 100 µM.
As to `O=C(O)CCNCCCNCCC(=O)O`, the TGI is greater than 100 µM.
Consider `CC(=O)[CH-]C(=O)c1ccccc1.CC(=O)[CH-]C(=O)c1ccccc1.CN(C)c1ccc([O-])cc1.CN(C)c1ccc([O-])cc1.Cl.[Ti+4]`, for which the GI50 is 49.2 µM and the TGI is greater than 100 µM.
Compound `NC1=NCCC1(c1ccccc1)c1ccccn1` (stereo unspecified) gave a TGI greater than 100 µM.
Take `CCCCCCCCCCCC(=O)OCCOCCOCCOCCOCCOCc1ccccc1`: the TGI was greater than 100 µM.
With `CCCCCCCCCCCCCC(=O)OC(/C=C/C(C)C)C(O)C(O)C(OC)C(=O)NC1CCCCN(C)C1=O` (stereo unspecified), the GI50 is greater than 49 µM; the TGI was 10.8 µM and > 49 µM.
The compound `CCOC(=O)CCC1(C(=O)OCC)CCCCC1=O` (stereo unspecified) had a TGI greater than 100 µM.
In the case of `CCCC1C(=O)CCc2c(OC)ccc(OC)c21` (stereo unspecified), the TGI was greater than 100 µM.
On the same count and under the same terms, the figure for `NC(=O)NO.O.O.O.O.O.O.O.O.O.O.O.[Ge].[Ge].[Ge].[Ge].[Ge].[O]=[Ge].[O]=[Ge].[O]=[Ge].[O]=[Ge].[O]=[Ge][OH]` is greater than 100 µM.
The same measure, in the same setting: the same measure for `O=C(Nc1nc2ccc([N+](=O)[O-])cc2s1)C(=O)C(C1OC(=O)c2ccccc21)[N+](=O)[O-]` (stereo unspecified): greater than 100 µM; for `COc1cc2cc(OC)c3cc4c(cc3c2c(OC)c1OC)OCO4`: 90.9 µM.
As to `COc1cc2c(cc1OCCCCN1CCN(CC(=O)Nc3ccc(Cl)cc3C(=O)c3ccccc3Cl)CC1)N=CC1CCCN1C2=O` (stereo unspecified), the GI50 was 0.324 µM and the TGI is 0.939 µM.
For `C[C@@H](Oc1cc(-n2cnc3ccc(CN4CCN(C)CC4)cc32)sc1C(N)=O)c1ccccc1C(F)(F)F`, the GI50 is < 0.0175 µM and 0.0264 µM; the TGI was 16.6 µM and > 10 µM.

A further experiment has as its system RPMI-8226 leukemia. Briefly: NCI-60 cell line screen, 48 h.
For the compound `CCOC1Oc2ccccc2C(=O)/C1=C/Nc1ccc(C(C)=O)cc1` (stereo unspecified), the GI50 is 15.9 µM and the TGI was 68.3 µM.
Regarding `COC1/C=C/OC2(C)Oc3c(C)c(O)c4c(O)c(c(/C=N/Nc5ccc([N+](=O)[O-])cc5[N+](=O)[O-])c(O)c4c3C2=O)NC(=O)C(C)=C/C=C/C(C)C(O)C(C)C(O)C(C)C(OC(C)=O)C1C` (stereo unspecified), the GI50 was 1.96 µM and the TGI was found to be 14.5 µM.
In the case of `Cc1cc(NS(=O)(=O)c2ccc(Nc3c4ccccc4nc4c(C(=O)N5CCN(CCOS(C)(=O)=O)CC5)cccc34)cc2)no1`, the TGI is greater than 100 µM.
Consider `O=C(O)CCC(NC(=O)c1ccc(Nc2nc3ccccc3nc2-c2cccs2)cc1)C(=O)O` (stereo unspecified), for which the TGI is greater than 100 µM.
As to `COc1ccc2c(c1)sc1nc(-c3ccccc3)c(-c3cccc4ccccc34)n12`, the GI50 is 0.99 µM and the TGI came to 27.4 µM.
Consider `C[N+](C)(C)CC(=O)N/N=C(/CC(=O)CC(C1=C(O)c2ccccc2OC1)c1ccccc1)C(=O)Nc1cccc(Cl)c1` (stereo unspecified), for which the TGI was greater than 100 µM.
Same read-out and setting: the figure for `CCN(CC)N=Nc1c(C(N)=O)n[nH]c1C` is greater than 100 µM; for `COc1cc2ccnc([C@@H](OC(=O)c3ccccc3)c3ccc(OC)c(OC)c3OC)c2cc1OC` it is greater than 100 µM.
Turning to `Cc1ccc(NC(=O)Nc2ccc(-c3cccnc3)cc2N2CCC(CO)CC2)cc1`, the GI50 is 3.02 µM and the TGI turned out to be 14.3 µM.
Compound `O=C(O)CCNCCCNCCC(=O)O` yielded a TGI greater than 100 µM.
For the compound `CC(=O)[CH-]C(=O)c1ccccc1.CC(=O)[CH-]C(=O)c1ccccc1.CN(C)c1ccc([O-])cc1.CN(C)c1ccc([O-])cc1.Cl.[Ti+4]`, the GI50 is 16.8 µM and the TGI is greater than 31.6 µM.
Compound `NC1=NCCC1(c1ccccc1)c1ccccn1` (stereo unspecified) yielded a TGI greater than 100 µM.
As for `CCCCCCCCCCCC(=O)OCCOCCOCCOCCOCCOCc1ccccc1`, the TGI was greater than 100 µM.
Consider `CCCCCCCCCCCCCC(=O)OC(/C=C/C(C)C)C(O)C(O)C(OC)C(=O)NC1CCCCN(C)C1=O` (stereo unspecified), for which the GI50 was greater than 49 µM; the TGI is 9.97 µM and > 49 µM.
The compound `CCOC(=O)CCC1(C(=O)OCC)CCCCC1=O` (stereo unspecified) showed a TGI greater than 100 µM.
On the same count and under the same terms, the same measure for `CCCC1C(=O)CCc2c(OC)ccc(OC)c21` (stereo unspecified): greater than 100 µM; for `NC(=O)NO.O.O.O.O.O.O.O.O.O.O.O.[Ge].[Ge].[Ge].[Ge].[Ge].[O]=[Ge].[O]=[Ge].[O]=[Ge].[O]=[Ge].[O]=[Ge][OH]`: greater than 100 µM; for `O=C(Nc1nc2ccc([N+](=O)[O-])cc2s1)C(=O)C(C1OC(=O)c2ccccc21)[N+](=O)[O-]` (stereo unspecified): greater than 100 µM.
The same measure, in the same setting: the same measure for `COc1cc2cc(OC)c3cc4c(cc3c2c(OC)c1OC)OCO4`: 52.9 µM.
